Test results taken from patent US20240285784A1, “PEPTIDIC CONJUGATES OF SN38 USEFUL IN THE TREATMENT OF CANCER” (FUNDACIÓ INSTITUT DE RECERCA BIOMÈDICA (IRB BARCELONA), priority 2020, published 2024).
Where two headings read alike, the source gives them in different places. *1 amine or outer side, *2 acyl side, *3 side chain or, on linkers, in order; H or OH if unused. Where a SMILES comes first, the peptide text is derived from it. Bridges are numbered along the chain shown (N, C = ends). [ ]: non-standard residue; d: D form. The star is where a group is joined. X1 = CCc1c2c(nc3ccc(O)cc13)-c1cc3c(c(=O)n1C2)COC(=O)[C@@]3(CC)OC(=O)CCCCn1cc(CCCC(=O)NCCCOCCOCCOCCCN*)nn1; Suc = O=C(CCC(=O)[*:2])[*:1]; Dap = NC[C@H](N)C(=O)O

Columns and labels:
[1] = test system: adult glioma cell line U87; experiment: MTS cell viability assay, adult glioma cell line U87; type: cell-based; details: 72 h incubation, Example 9, Table 3, read-out: IC50 values against cancer cell lines
Description: (§1) Cancer cell lines were obtained from the repository maintained at Hospital Sant Joan de Deu (Barcelona, Spain). Cancer cell lines used in these experiment included cancer types of adult glioma (U373 and U87 cell lines), pediatric gliomas including diffuse intrinsic pontine glioma (HSJD-DIPG-007, HSJD-DIPG-011), and pediatric high-grade glioma (HSJD-GBM-001), retinoblastoma (HSJD-RBT-5, HSJD-RBT-7 and HSJD-RBT-14), Ewing sarcoma (A673), rhabdomyosarcoma (Rd and RH4) and neuroblastoma (LAN-1 and SK-N-JD cell lines and HSJD-NB-004, HSJD-NB-005 and HSJD-NB-016 patient-derived cell models). […] To add the drugs to the cells in culture, SN38-linker A-MiniAp4 (Ia) and irinotecan were prepared in culture medium from stock solutions at concentration 1 mg/mL in water. SN38 was prepared in culture medium from a stock solution at concentration 1 mg/mL in DMSO. […] Activity curves were built for adult glioma cell lines U87 (FIG. 1) and U373 (FIG. 2), pediatric gliomas including DIPG models HSJD-DIPG-007 (FIG. 3) and HSJD-DIPG-011 (FIG. 4), and pediatric high-grade glioma model HSJD-GBM-001 (FIG. 5), retinoblastoma models HSJD-RBT-5 (FIG. 6), HSJD-RBT-7 (FIG. 7) and HSJD-RBT-14 (FIG. 8), Ewing sarcoma cell line A673 (FIG. 9), rhabdomyosarcoma cell lines Rd (FIG. 10) and RH4 (FIG. 11), neuroblastoma cell lines LAN-1 (FIG. 12) and SK-N-JD (FIG. 13) and neuroblastoma patient-derived cell models HSJD-NB-004 (FIG. 14), HSJD-NB-005 (FIG. 15) and HSJD-NB-016 (FIG. 16). The established IC50 values are in Table 3.

[2] = test system: neuroblastoma patient-derived cell model HSJD-NB-005; experiment: MTS cell viability assay, neuroblastoma model HSJD-NB-005; type: cell-based; details: 72 h incubation, Example 9, Table 3, read-out: IC50 values against cancer cell lines
Description: as §1

[3] = test system: adult glioma cell line U373; experiment: MTS cell viability assay, adult glioma cell line U373; type: cell-based; details: 72 h incubation, Example 9, Table 3, read-out: IC50 values against cancer cell lines
Description: as §1

[4] = test system: diffuse intrinsic pontine glioma HSJD-DIPG-011; experiment: MTS cell viability assay, DIPG model HSJD-DIPG-011; type: cell-based; details: 72 h incubation, Example 9, Table 3, read-out: IC50 values against cancer cell lines
Description: as §1

[5] = test system: neuroblastoma cell line SK-N-JD; experiment: MTS cell viability assay, neuroblastoma cell line SK-N-JD; type: cell-based; details: 72 h incubation, Example 9, Table 3, read-out: IC50 values against cancer cell lines
Description: as §1

[6] = test system: rhabdomyosarcoma cell line RH4; experiment: MTS cell viability assay, rhabdomyosarcoma cell line RH4; type: cell-based; details: 72 h incubation, Example 9, Table 3, read-out: IC50 values against cancer cell lines
Description: as §1

[7] = test system: diffuse intrinsic pontine glioma HSJD-DIPG-007; experiment: cells
Description: as §1
Cancer cell lines used in these experiments were pediatric gliomas including diffuse intrinsic pontine glioma HSJD-DIPG-007, and pediatric high-grade glioma HSJD-GBM-001. […] To add the drugs to the cells in culture, SN38-Linker A-MiniAp4 (Ia) and SN38-Linker B-THRre were prepared in culture medium from stock solutions at concentration 1 mg/mL in water. SN38 was prepared in culture medium from a stock solution at concentration 1 mg/mL in DMSO. […] Activity curves were built for cells HSJD-DIPG-007 (FIG. 20) and HSJD-GBM-001 (FIG. 21).
Cancer cell lines used in these experiments were pediatric gliomas including diffuse intrinsic pontine glioma HSJD-DIPG-007, and pediatric high-grade glioma HSJD-GBM-001. […] All compounds were prepared in culture medium from stock solutions at concentration 1 mg/mL in water. […] Activity curves were built for cells HSJD-DIPG-007 (FIG. 22) and HSJD-GBM-001 (FIG. 23).
Cancer cell line used in these experiment was HSJD-DIPG-007.

[8] = test system: neuroblastoma patient-derived cell model HSJD-NB-004; experiment: MTS cell viability assay, neuroblastoma model HSJD-NB-004; type: cell-based; details: 72 h incubation, Example 9, Table 3, read-out: IC50 values against cancer cell lines
Description: as §1

[9] = test system: neuroblastoma patient-derived cell model HSJD-NB-016; experiment: MTS cell viability assay, neuroblastoma model HSJD-NB-016; type: cell-based; details: 72 h incubation, Example 9, Table 3, read-out: IC50 values against cancer cell lines
Description: as §1

[10] = test system: rhabdomyosarcoma cell line Rd; experiment: MTS cell viability assay, rhabdomyosarcoma cell line Rd; type: cell-based; details: 72 h incubation, Example 9, Table 3, read-out: IC50 values against cancer cell lines
Description: as §1

[11] = test system: retinoblastoma cell model HSJD-RBT-14; experiment: MTS cell viability assay, retinoblastoma model HSJD-RBT-14; type: cell-based; details: 72 h incubation, Example 9, Table 3, read-out: IC50 values against cancer cell lines
Description: as §1

[12] = test system: retinoblastoma cell model HSJD-RBT-7; experiment: MTS cell viability assay, retinoblastoma model HSJD-RBT-7; type: cell-based; details: 72 h incubation, Example 9, Table 3, read-out: IC50 values against cancer cell lines
Description: as §1

[13] = test system: Ewing sarcoma cell line A673; experiment: MTS cell viability assay, Ewing sarcoma cell line A673; type: cell-based; details: 72 h incubation, Example 9, Table 3, read-out: IC50 values against cancer cell lines
Description: as §1

[14] = Stability in human plasma at 37° C. in vitro; type: in vitro ADME
Experimental: To assess the stability of the SN38-linker A-MiniAp4 (Ia) (example 7) in human, mouse, dog and rat plasma at 37° C., the compound was prepared at 200 μM in plasma samples in triplicates at each timepoint (0 h, 1 h, 4 h, 8 h and 24 h) for each species. Once the incubation was finalised, plasma proteins were immediately precipitated by adding chilly methanol (ratio 4:1, methanol:plasma) and tubes were shacked for few seconds (vortex). Samples were centrifuged at 3,000 rpm for 30 minutes at 4° C., supernatants were collected, transferred to the injection plate and injected to LC-MS system.
Compound recovery was determined by comparing the analyte response in a biological sample that is spiked with the analyte and processed, with the response in a methanol sample that is spiked with the analyte and processed.
Plasma stability assay was performed using blank plasma from untreated volunteers/animals. K2-EDTA was used as anticoagulant. Human blank plasma used was obtained from Hospital Sant Pau, mouse blank plasma used was obtained from Janvier, dog blank plasma used was obtained from Isoquimen and rat blank plasma used were obtained from Draconis Pharma.
To assess the stability of the G2B-001 lineal (Ib) (example 16) in human plasma at 37° C., the compound was prepared at 200 µM in plasma samples in triplicates at each timepoint (0 h, 0.5 h, 1 h, 2 h, 4 h, 8 h and 24 h). Once the incubation was finalised, plasma proteins were immediately precipitated by adding chilly methanol (ratio 4:1, methanol:plasma) and tubes were shacked for few seconds (vortex). Samples were centrifuged at 3,000 rpm for 30 minutes at 4° C., supernatants were collected, transferred to the injection plate and injected to LC-MS system. Compound recovery was determined by comparing the analyte response in a biological sample that is spiked with the analyte and processed, with the response in a methanol sample that is spiked with the analyte and processed.
Plasma stability assay was performed using blank plasma from untreated volunteers. K2-EDTA was used as anticoagulant. Human blank plasma used was obtained from Hospital Sant Pau.

[15] = HSJD-DIPG-007, 72 h, read-out: IC50 values against cancer cell lines

| IC50 ([1]; Glioma cell) [µM] | IC50 [2] [µM] | IC50 ([3]; Homo sapiens, U373 MG) [µM] | IC50 [4] [µM] | IC50 ([5]; Neuroblastoma cell) [µM] | IC50 ([6]; Rhabdomyosarcoma cell) [µM] | IC50 [7, 15] [µM] | IC50 [8] [µM] | IC50 [9] [µM] | IC50 ([10]; Rhabdomyosarcoma cell) [µM] | IC50 [11] [µM] | IC50 [12] [µM] | IC50 ([13]; Homo sapiens) [µM] | SMILES | other results |
| --- | --- | --- | --- | --- | --- | --- | --- | --- | --- | --- | --- | --- | --- | --- |
| 9.75 | 8.2 | 3.72 | 1.2 | 7.76 | 10.8 | 4.75 | 9.84 | 0.659 | 5.96 | 2.6 | 1.12 | 1.44 | CCc1c2c(nc3ccc(OC(=O)N4CCC(N5CCCCC5)CC4)cc13)-c1cc3c(c(=O)n1C2)COC(=O)[C@]3(O)CC [Irinotecan] |  |
| 0.00404 | 0.0125 | 0.000869 | 0.00112 | 0.00755 | 0.0148 | 0.00113 | 0.231 | 0.0123 | 0.00157 | 0.00108 | 0.000335 | 0.000462 | CCc1c2c(nc3ccc(O)cc13)-c1cc3c(c(=O)n1C2)COC(=O)[C@]3(O)CC [SN38, 7-ethyl-10-hydroxy-camptothecin] | IC50 ([7]; HSJD-DIPG-007, 72 h, read-out: IC50 values (μM)): 0.000739 µM; IC50 ([7]; HSJD-DIPG-007, 72 h, read-out: IC50 values of compounds): 0.00151 µM |

| SMILES | IC50 ([1]; Glioma cell) [µM] | IC50 [2] [µM] | IC50 ([3]; Homo sapiens, U373 MG) [µM] | IC50 [4] [µM] | IC50 ([5]; Neuroblastoma cell) [µM] | IC50 ([6]; Rhabdomyosarcoma cell) [µM] | IC50 [7, 15] [µM] | IC50 [8] [µM] | IC50 [9] [µM] | IC50 ([10]; Rhabdomyosarcoma cell) [µM] | IC50 [11] [µM] | IC50 [12] [µM] | IC50 ([13]; Homo sapiens) [µM] | other results |
| --- | --- | --- | --- | --- | --- | --- | --- | --- | --- | --- | --- | --- | --- | --- |
| CCc1c2c(nc3ccc(O)cc13)-c1cc3c(c(=O)n1C2)COC(=O)[C@@]3(CC)OC(=O)CCCCn1cc(CCCC(=O)NCCCOCCOCCOCCCNC(=O)CCC(=O)N[C@H]2CNC(=O)C[C@@H](C(N)=O)NC(=O)[C@H](CC(C)C)NC(=O)[C@H](C)NC(=O)[C@H]([C@@H](C)O)NC(=O)[C@H](CCC(=O)O)NC(=O)[C@@H]3CCCN3C(=O)[C@H](C)NC(=O)[C@H](CCCCN)NC2=O)nn1 [SN38-linker A-MiniAp4 (Ia)] ({X1-Suc}-[Dap]KAPETALD-NH2; lactam 1-9) |  | 0.0515 |  | 0.0729 |  |  |  | 0.0769 | 0.0256 |  | 0.0335 | 0.0151 |  | IC50 [1]: 0.744 µM; IC50 [3]: 0.00665 µM; IC50 [5]: 0.0139 µM; half-life at 200 μM [14]: > 24 h; recovery at 24 h, 200 μM ([14]; 24 h, read-out: % Recovery after 24 h in human plasma): 65.1%; IC50 [6]: 0.0815 µM; IC50 ([7]; read-out: IC50 values (μM) against cancer cell lines, HSJD-DIPG-007, MTS, 72 h incubation, Example 12, Table 5): 0.0203 µM; IC50 ([7]; read-out: IC50 values against cancer cell lines, HSJD-DIPG-007, MTS, 72 h incubation, Example 9, Table 3): 0.0342 µM; IC50 ([7]; read-out: IC50 values of compounds, HSJD-DIPG-007, MTS, 72 h incubation, Example 11, Table 4): 0.0107 µM; IC50 ([7]; read-out: IC50 values, HSJD-DIPG-007, MTS, 72 h incubation, Example 25, Table 8): 0.0278 µM; IC50 [10]: 0.00694 µM; IC50 [13]: 0.0038 µM |
